The record followed here is patent US6586441B2, “Adenosine receptor ligands and their use in the treatment of disease” (Hoffman-La Roche Inc., priority 2000, dated 2003).

Assay [1] deals with T1, human adenosine A1 receptor (Homo sapiens, UniProt P30542).
T1 construct: expressed in transfected cells; host or cells: CHO cells, semliki forest virus expression system; membrane preparation
T1 sequence (P30542 1-326): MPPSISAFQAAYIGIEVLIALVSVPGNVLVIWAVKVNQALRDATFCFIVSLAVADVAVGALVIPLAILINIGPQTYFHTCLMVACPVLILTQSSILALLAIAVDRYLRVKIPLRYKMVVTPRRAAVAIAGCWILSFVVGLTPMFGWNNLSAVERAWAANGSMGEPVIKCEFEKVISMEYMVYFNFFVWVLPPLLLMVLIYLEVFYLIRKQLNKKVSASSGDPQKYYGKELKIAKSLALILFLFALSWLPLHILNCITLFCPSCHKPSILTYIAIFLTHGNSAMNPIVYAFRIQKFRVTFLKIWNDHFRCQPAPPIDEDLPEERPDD
Put plainly: Human adenosine A1 receptor [3H]-DPCPX binding assay. Particulars: membranes of CHO cells, read-out: hA1 (pKi) (converted). The method, then: (§1) The gene encoding human adenosine A1 receptor was recombinantly introduced and expressed in chinese hamster ovary (CHO) cells using the semliki forest virus expression system. Cells were harvested, washed twice by centrifugation, homogenised and again washed by centrifugation. The final washed membrane pellet was suspended in a Tris (50 mM) buffer containing 120 mM NaCl, 5 mM KCl, 2 mM CaCl2 and 10 mM MgCl2 (pH 7.4) (buffer A). The [^3H]-DPCPX (([propyl-3H]8-cyclopentyl-1,3-dipropyxanthine); 0.6 nM) binding assay was carried out in 96-well plates in the presence of 2.5 μg of membrane protein, 0.5 mg of Ysi-poly-1-lysine SPA beads and 0. I U adenosine deaminase in a final volume of 200 μl of buffer A. Non-specific binding was defined using xanthine amine congener (XAC; 2 μM). Compounds were tested at 10 concentrations from 10 μM-0.3 nM. All assays were conducted in duplicate and repeated at least two times. Assay plates were incubated for 1 hour at room temperature before centrifugation and then bound ligand determined using a Packard Topcount scintillation counter. IC50 values were calculated using a non-linear curve fitting program and Ki values calculated using the Cheng-Prussoff equation.

Assay [2] addresses T2, human adenosine A2A receptor (Homo sapiens, UniProt P29274).
T2 construct: expressed in transfected cells; host or cells: CHO cells, semliki forest virus expression system; membrane preparation
Kind of assay: Human adenosine A2A receptor [3H]-SCH-58261 binding assay. As to conditions: for hA2 (pKi): human A2A receptor, selectivity table; for Ki / pKi (affinity to the human A2a receptor): human A2a receptor, membranes of CHO cells, [3H]-SCH-58261; for Ki: read-out: pKi (affinity to the human A2a receptor) (converted). As to the method: as §1, with “A2A” for “A1”, “[^3H]-SCH-58261 (Dionisotti et al., 1997, Br. J. Pharmacol. 121, 353; 1” for “[^3H]-DPCPX (([propyl-3H]8-cyclopentyl-1,3-dipropyxanthine); 0.6”, “0.1” for “0. I”, “[…]).” for “μM).”

Structures are written as SMILES.

T2 sequence (P29274 whole entry): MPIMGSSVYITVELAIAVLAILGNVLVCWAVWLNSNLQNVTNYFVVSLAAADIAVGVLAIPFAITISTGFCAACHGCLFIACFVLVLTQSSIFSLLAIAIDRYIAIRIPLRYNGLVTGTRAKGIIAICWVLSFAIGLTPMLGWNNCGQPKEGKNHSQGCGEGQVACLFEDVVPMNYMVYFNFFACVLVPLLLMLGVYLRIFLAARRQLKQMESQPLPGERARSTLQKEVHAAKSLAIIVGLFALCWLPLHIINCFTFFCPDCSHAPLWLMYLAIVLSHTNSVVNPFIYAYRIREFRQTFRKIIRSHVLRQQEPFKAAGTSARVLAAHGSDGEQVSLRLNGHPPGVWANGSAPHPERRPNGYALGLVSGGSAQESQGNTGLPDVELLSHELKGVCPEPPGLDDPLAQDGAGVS

Regarding `Cc1ccc(CNc2nc(N)nc(-c3ccco3)c2C#N)cc1` [Example 290, 2-Amino-4-furan-2-yl-6-(4-methyl-benzylamino)-pyrimidine-5-carbonitrile], the Ki is 2040 nM in assay [1] and 6.76 nM in assay [2]. In addition, in assay [2], the “hA2 (pKi)” value is listed as 8.17.

As for `N#Cc1c(NCc2ccc3ccccc3c2)nc(N)nc1-c1ccco1` [Example 298, 2-Amino-4-furan-2-yl-6-[(naphthalen-2-ylmethyl)-amino]-pyrimidine-5-carbonitrile], the Ki in assay [1] is 6920 nM. Besides, in assay [2], the “hA2 (pKi)” value is given as 8.23 and the Ki is 5.89 nM.

Regarding `N#Cc1c(NCc2ccc(C(F)(F)F)cc2)nc(N)nc1-c1ccco1` [Example 345, 2-Amino-4-furan-2-yl-6-(4-trifluoromethyl-benzylamino)-pyrimidine-5-carbonitrile], the Ki in assay [1] was 6310 nM. Moreover, in assay [2], the “hA2 (pKi)” value is recorded as 8.38 and the Ki was 4.17 nM.

Regarding `Cc1ccnc(COc2nc(N)nc(-c3ccco3)c2C#N)c1` [Example 373, 2-Amino-4-furan-2-yl-6-(4-methyl-pyridin-2-yl-methoxy)-pyrimidine-5-carbonitrile], in assay [2], the Ki is 5.13 nM.

In the case of `C=Cc1ccc(CNc2nc(N)nc(-c3ccco3)c2C#N)cc1` [Example 374, 2-Amino-4-furan-2-yl-6-(4-vinyl-benzylamino)-pyrimidine-5-carbonitrile], in assay [2], the Ki was 9.33 nM.

Turning to `Cc1cccnc1CNc1cc(N)nc(-c2ccco2)c1C#N` [Example 376, 6-Amino-2-furan-2-yl-4-[(3-methyl-pyridin-2-yl-methyl)-amino]-nicotinonitrile], in assay [2], the Ki was 4.57 nM.

Regarding `Cc1ccc(CNc2cc(N)nc(-c3ccco3)c2C#N)nc1` [Example 377, 6-Amino-2-furan-2-yl-4-[(5-methyl-pyridin-2-yl-methyl)-amino]-nicotinonitrile], the Ki in assay [2] is 7.76 nM.

As for `Cc1ccc(COc2nc(N)nc(-c3ccco3)c2C#N)cn1` [Example 381, 2-Amino-4-furan-2-yl-6-(6-methyl-pyridin-3-yl-methoxy)-pyrimidine-5-carbonitrile], in assay [2], the Ki was 3.47 nM.

As for `Cc1cccnc1COc1cc(N)nc(-c2ccco2)c1C#N` [Example 383, 6-Amino-2-furan-2-yl-4-(3-methyl-pyridin-2-yl-methoxy)-nicotinonitrile], the Ki in assay [2] was 1.91 nM.

Consider `N#Cc1c(OCCc2ccccn2)cc(N)nc1-c1ccco1` [Example 384, 6-Amino-2-furan-2-yl-4-(2-pyridin-2-yl-ethoxy)-nicotinonitrile], for which the Ki in assay [2] was 3.02 nM.

Regarding `N#Cc1c(N)nc(SCc2ccccc2)c(C#N)c1-c1cccs1` [Example 389, 2-Amino-6-benzylsulfanyl-4-thiophen-2-yl-pyridine-3.5-dicarbonitrile], the Ki in assay [2] was 8.32 nM.

For `Cc1cnc(COc2nc(N)nc(-c3ccco3)c2C#N)c(C)c1` [Example 401, 2-Amino-4-(3,5-dimethyl-pyridin-2-ylmethoxy)-6-furan-2-yl-pyrimidine-5-carbonitrile], the Ki in assay [2] is 0.692 nM.

With `Cc1cnc(CNc2nc(N)nc(-c3ccco3)c2C#N)c(C)c1` [Example 402, 2-Amino-4-[(3,5-dimethyl-pyridin-2-ylmethyl)-amino]-6-furan-2-yl-pyrimidine-5-carbonitrile], the Ki in assay [2] was 2.14 nM.

`N#Cc1c(OCCc2ccccn2)nc(N)nc1-c1cccc(F)c1` [Example 405, 2-Amino-4-(3-fluoro-phenyl)-6-(2-pyridin-2-yl-ethoxy)-pyrimidine-5-carbonitrile]: the Ki in assay [2] was 7.41 nM.

As for `Cc1coc(-c2nc(N)nc(SCCc3ccccn3)c2C#N)c1` [Example 422, 2-Amino-4-(4-methyl-furan-2-yl)-6-(2-pyridin-2-yl-ethylsulfanyl)-pyrimidine-5-carbonitrile], in assay [2], the Ki was 1.35 nM.

Turning to `Cc1coc(-c2nc(N)nc(OCCc3ccccn3)c2C#N)c1` [Example 423, 2-Amino-4-(4-methyl-furan-2-yl)-6-(2-pyridin-2-yl-ethoxy)-pyrimidine-5-carbonitrile], the Ki in assay [2] is 3.02 nM.

For the compound `Cc1ccnc(CNc2nc(N)nc(C3=CCCO3)c2C#N)c1` [Example 464, 2-Amino-4-(4,5-dihydro-furan-2-yl)-6-[(4-methyl-pyridin-2-ylmethyl)-amino]-pyrimidine-5-carbonitrile], the “pKi (affinity to the human A2a receptor)” value in assay [2] is reported as 8.12.

Turning to `Cc1cnc(COc2nc(N)nc(-c3ccc(C)o3)c2C#N)c(C)c1` [Example 466, 2-Amino-4-(3,5-dimethyl-pyridin-2-ylmethoxy)-6-(5-methyl-furan-2-yl)-pyrimidine-5′-carbonitrile], the “pKi (affinity to the human A2a receptor)” value in assay [2] is given as 8.97.

With `N#Cc1c(SCCc2ccccn2)nc(N)nc1-c1ccc(Cl)o1` [Example 478], in assay [2], the “pKi (affinity to the human A2a receptor)” value amounted to 8.96.

`N#Cc1c(NCc2ccccc2Br)nc(N)nc1-c1ccc(Br)o1` [Example 512, 2-Amino-4-(2-bromo-benzylamino)-6-(5-bromo-furan-2-yl)-pyrimidine-5-carbonitrile]: the “pKi (affinity to the human A2a receptor)” value in assay [2] stood at 8.88.

For `N#Cc1c(SCCc2ccccn2)nc(N)nc1-c1cc(Br)co1` [Example 521, 2-Amino-4-(4-bromo-furan-2-yl)-6-(2-pyridin-2-yl-ethylsulfanyl)-pyrimidine-5-carbonitrile], the Ki in assay [2] was 1.17 nM.

Turning to `N#CCc1ccc(-c2nc(N)nc(SCCc3ccccn3)c2C#N)o1` [Example 524, 2-Amino-4-(5-cyanomethyl-fran-2-yl)-6-(2-pyridin-2:yl-ethylsulfanyl)-pyrimidine-5-carbonitrile], in assay [2], the Ki is 5.75 nM.

For the compound `N#Cc1c(OCCc2ccccn2)nc(N)nc1-c1ccc(Cl)o1` [Example 525, 2-Amino-4-(5-chloro-furan-2-yl)-6-(2-pyridin-2-yl-ethoxy)-pyrimidine-5-carbonitrile], in assay [2], the Ki was 0.871 nM.

Regarding `Cc1cnc(COc2nc(N)nc(-c3ccc(Cl)o3)c2C#N)c(C)c1` [Example 526, 2-Amino-4-(5-chloro-furan-2-yl)-6-(3,5-dimethyl-pyridin-2-ylmethoxy)-pyrimidine-5-carbonitrile], the Ki in assay [2] is 4.27 nM.

Regarding `Cc1cccnc1COc1nc(N)nc(-c2ccc(Cl)o2)c1C#N` [Example 530, 2-Amino-4-(5-chloro-furan-2-yl)-6-(3-methyl-pyridin-2-yl-methoxy)-pyrimidine-5-carbonitrile], in assay [2], the Ki was 1.74 nM.

Regarding `Cc1ccc(COc2nc(N)nc(-c3ccc(Cl)o3)c2C#N)nc1` [Example 531, 2-Amino-4-(5-chloro-furan-2-yl)-6-(5-methyl-pyridin-2-yl-methoxy)-pyrimidine-5-carbonitrile], the Ki in assay [2] was 5.62 nM.

`Cc1ccc(COc2nc(N)nc(-c3cc(Br)co3)c2C#N)nc1` [Example 532, 2-Amino-4-(4-bromo-furan-2-yl)-6-(5-methyl-pyridin-2-yl-methoxy)-pyrimidine-5-carbonitrile]: the Ki in assay [2] is 5.62 nM.

On to `Cc1cnc(COc2nc(N)nc(-c3cc(Br)co3)c2C#N)c(C)c1` [Example 533, 2-Amino-4-(4-bromo-furan-2-yl)-6-(3,5-dimethyl-pyridin-2-yl-methoxy)-pyrimidine-5-carbonitrile], for which the Ki in assay [2] is 1.41 nM.

As to `Cc1cccnc1COc1nc(N)nc(-c2cc(Br)co2)c1C#N` [Example 534, 2-Amino-4-(4-bromo-furan-2-yl)-6-(3-methyl-pyridin-2-yl-methoxy)-pyrimidine-5-carbonitrile], the Ki in assay [2] is 0.955 nM.

`N#Cc1coc(-c2nc(N)nc(SCCc3ccccn3)c2C#N)c1` [Example 535, 2-Amino-4-(4-cyano-furan-2-yl)-6-(2-pyridin-2-yl-ethylsulfanyl)-pyrimidine-5-carbonitrile]: the Ki in assay [2] was 3.98 nM.

For the compound `N#Cc1c(SCCc2ccccn2)nc(N)nc1-c1ccc(C(F)F)o1` [Example 538, 2-Amino-4-(5-difluoromethyl-furan-2-yl)-6-(2-pyridin-2-yl-ethylsulfanyl)-pyrimidine-5-carbonitrile], in assay [2], the Ki is 1.95 nM.
